How the values were obtained:
[1] = target: T1, RBP4-TTR interaction (Homo sapiens, UniProt P02753); test: TR-FRET/HTRF assay for antagonists of retinol-induced RBP4-TTR interaction (Example 2, agonist and antagonist mode); format: biochemical; settings: agonist mode, dose titration without retinol
T1 construct: host or cells: E. coli
Text: TR-FRET (Time-Resolved Fluorescence Resonance Energy Transfer) is an assay format that can be used in characterization of compounds affecting protein-protein interactions (31-33). […] In the presence of retinol, RBP4-TTR interaction induces FRET that can be registered as increased ratio of […] fluorescence signals. Binding of a desired RBP4 antagonist displaces retinol and induces hindrance for RBP4-TTR interaction resulting in the decreased FRET signal (FIG. 7).
The assay was developed using E. coli-expressed MBP-tagged RBP4 and commercially available TTR labeled directly with Eu3+ cryptate. In addition to MBP-RBP4 and Eu3+ (K)-TTR, a detector reagent anti-MBP-d2 was present in the mix. The assay was first optimized in the agonist mode; sensitivity and dynamic range of the assay was […] in respect to RBP4, TTR and detection reagent concentrations.

[2] = target: T2, serum RBP4 (Mus musculus, UniProt Q00724); test: Serum RBP4 measured by ELISA in Abca4-/- mice; format: in vivo
T2 construct: There was approximately a 70% reduction in the serum RBP4 level in treated animals; from tissue; host or cells: mouse serum (Abca4-/- and wild-type, 129/SV x C57BL/6J)
Method: The Abca4−/− mouse model manifests accelerated accumulation of lipofuscin in the RPE and is considered a pre-clinical efficacy model for a drug reducing lipofuscin accumulation.
(§1) Ten week-old Abca4 null mutant mice (129/SV×C57BL/6J) bred as previously described were used in the study. Abca4−/− (knockout) and Abca4+/+ (wild-type) mice were raised under 12 h on-off cyclic lighting with an in-cage illuminance of 30-50 lux. For long-term oral dosing A1120 was formulated into Purina 5035 rodent chow at Research Diets, Inc. (New Brunswick, N.J.) to ensure consistent 30 mg/kg daily oral dosing. Animals were administered the A1120-containing chow for 6 weeks.
Blood samples were collected from a tail vein at days 0, 21 and 42 of the A1120 dosing. Whole blood was drawn into a centrifuge tube and was let clot at room temperature for 30 min followed by centrifugation at 2,000×g for 15 minutes at +4′C to collect serum. Serum RBP4 was measured using the RBP4 (mouse/rat) dual ELISA kit (Enzo Life Sciences) following the manufacturer's instructions.

[3] = test system: lipofuscin bisretinoids (A2E, A2-DHP-PE, atRAL di-PE); test: Lipofuscin bisretinoid levels in eyecups of Abca4-/- mice by HPLC; format: in vivo, mouse; settings: Example 3, treated mice, 30 mg/kg oral
Text: The Abca4−/− mouse model manifests accelerated accumulation of lipofuscin in the RPE and is considered a pre-clinical efficacy model for a drug reducing lipofuscin accumulation. […] There was approximately a 70% reduction in the serum RBP4 level in treated animals (FIG. 11). Additionally, it was discovered that that the levels of A2E/isoA2E and other bisretinoids were reduced by approximately 50% in treated mice (FIG. 12).
Abca4/Abcr null mutant mice (albino) homozygous for Rpe65-Leu450 are bred genotyped and housed. […] An Alliance system (Waters, Corp, Milford, Mass.) equipped with 2695 Separation Module, 2996 Photodiode Array Detector, a 2475 Multi λ Fluorescence Detector and operating with Empower® software is used for HPLC analysis. […] HPLC quantification is carried out using the Empower® software to determine peak areas. […] Molar quantity per murine eye is determined using calibration curves constructed from known concentrations of purified external standards and by normalizing to the ratio of the HPLC injection volume (10 μL) versus total extract volume. […]
Following euthanasia, posterior eye cups were pooled and homogenized in PBS using a tissue grinder. […] Levels of bisretinoid were determined by reference to external standards of HPLC-purified compound.

[4] = test system: ERG b-wave; test: ERG b-wave after photobleaching; settings: in vivo
[5] = Signs of toxicity during 6 week chronic dosing of Abca4-/- mice; format: in vivo; settings: 6 week-long chronic dosing, 30 mg/kg
Method: as §1
Administration of A1120 reduces the production of A2E, A2-DHP-PE, and atRAL di-PE in A1120-treated Abca4−/− mice in comparison to the vehicle-treated Abca4−/− animals by approximately 50%.

[6] = test system: insulin sensitivity; settings: reference 12; cited from earlier work
[7] = test system: A2E production; settings: animal model of excessive bisretinoid accumulation, reference 11; cited from earlier work
[8] = Abca4-/- mice, 30 mg/kg daily oral in chow

Row | SMILES | Induction of RBP4-TTR interaction [1] | Serum RBP4 reduction at Week 3 (Day 21) compared with Day 0 [2, 8] | Serum RBP4 reduction at Week 6 (Day 42) compared with Day 0 [2, 8] | Reduction in serum RBP4 level ([2]; orally dosed for 3 weeks at 30 mg/kg, treated animals) | Levels of A2-DHP-PE and atRAL di-PE [3] | Reduction of levels of A2E/isoA2E and other bisretinoids [3] | Effect on ERG b-wave after photobleaching [4] | Signs of compound toxicity such as weight loss or reduction in food consumption [5] | Insulin sensitivity in mouse diabetes models [6] | A2E production in Abca4-/- mice [7]
1 | O=C(O)c1ccccc1NC(=O)N1CCC(c2ccccc2C(F)(F)F)CC1 [Compound 1, 2(4-(2-(trifluoromethyl)phenyl)piperidine-1-carboxamido)benzoic acid] | did not induce RBP4-TTR interaction | 64% | 75% | ~70% | reduced | approximately 50% | does not reduce ERG b-wave | did not note any obvious signs of compound toxicity | did not improve insulin sensitivity | –
2 | CC1=C(/C=C/C(C)=C/C=C/C(C)=C/C(=O)Nc2ccc(O)cc2)C(C)(C)CCC1 [fenretinide, N-(4-hydroxy-phenyl)retinamide] | did not induce RBP4-TTR interaction | – | – | – | – | – | – | – | – | reduced A2E production

Source: patent publication US20170258786A1, “RBP4 ANTAGONISTS FOR THE TREATMENT OF AGE-RELATED MACULAR DEGENERATION AND STARGARDT DISEASE” (The Trustees of Columbia University in the City of New York, priority 2013, published 2017)
